The test system of assay [1] is mAb clones 4, 5, 12, and 13. Nature of the assay: ELISA capture of negative control biotinylated peptides by plate-adsorbed mAb clones. The format is binding, murine. The following applies: 100 ng/well. As for the experimental part:
More particularly, 96-well ELISA microplates were coated overnight with the indicated mAbs (500 ng/well), the wells were blocked with PBS/BSA solution before addition of biotinylated p5+14 peptide (100 ng/well). Biotinylated peptides, p5R and p31G (aka p5G) were used as a negative control. Following a wash step, detection of captured peptide was achieved by addition of europium-conjugated streptavidin as described above.
On the technique in general: ELISA stands for enzyme-linked immunosorbent assay.

Assay [2] has as its system synthetic and naturally-occurring amyloid samples. Nature of the assay: Pull down assay of ^125I-labeled peptides. The format is binding. The procedure: To evaluate the binding of p66 and p5+14 to synthetic and naturally-occurring amyloid, peptides p66 or p5+14 were radiolabeled with iodine-125 (I-125, ^125I) using oxidation with chloramine T (1 mg/ml in water freshly made. Free 1-125 was removed from the reaction mixture by size exclusion chromatography using a Sephadex G-25 solid phase and a 0.1% (w/v) gelatin in PBS mobile phase. Fractions of ˜250 μl were collected and the radioactivity in each measured using a gamma counter (Packard Cobra II auto-gamma counter). Peptide fractions with peak radioactivity were pooled and used for the “pull-down” assays.
For the pull down assay, ^125I-labeled peptide binding to murine: (m) AA and wild type (WT) liver homogenates (25 μl); rVλ6Wil (AL), Aβ(1-40) and islet amyloid polypeptide (IAPP) synthetic fibrils (25 μg), and; transthyretin-associated (ATTR), ALκ4-Cab and ALλ1-Ship human amyloid extracts (50 μg). The ^125I-peptides were prepared in PBST (0.15 M NaCl) or PBST with 1 M NaCl. Ten μl (˜5 ng, ˜100,000 counts per min [cpm]) of the ^125I-peptide solution was added to each test sample in a 200 μl volume. The reaction mixtures were rotated for 1 h at RT, then centrifuged twice at 16,000×g for 10 min. After each step the supernatants were removed and collected in test tubes. The pellets, obtained following the second spin were resuspended in PBST. The radioactivity in both the supernatant and pellet samples were measured using a Packard Cobra II auto-gamma counter. The bound peptide, expressed as % total was calculated according to: Bound peptide (% total)=(Pellet cpm)/(Pellet cpm+Supernatant cpm)

The next assay addresses T1, AA amyloid (Mus musculus, UniProt P05367).
T1 construct: from tissue; host or cells: organs of living H2-L^d-huIL-6 Tg Balb/c mice after AEF injection
T1 sequence (P05367 20-94 limits assumed): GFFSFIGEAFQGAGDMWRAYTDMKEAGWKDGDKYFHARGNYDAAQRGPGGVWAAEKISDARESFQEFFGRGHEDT
In words: In vivo pre-targeting of ^125I-11-1F4 to systemic AA amyloid. Also on record: species or system mice. The settings on record: 24 h post injection of 11-1F4 mAb; peptide given 24 h before mAb. As for the experimental part: Systemic visceral AA amyloidosis was induced in H2-L^d-huIL-6 Tg Balb/c transgenic mice that constitutively express the human interleukin-6 transgene, by iv injection of 10 μg of purified, splenic AA amyloid (amyloid enhancing factor; AEF) in 100 μL of sterile phosphate-buffered saline (PBS). Peptide p66 pre-targeting of ^125I-11-1F4 was evaluated in mice at 3-4 wk post AEF injection when amyloid load was modest.
Three cohorts of 3 mice, each received ˜400 μg of unlabeled peptide p66, and a second group of 3 cohorts were given peptide p5+14 as a control. Twenty-four hours after the peptide injection all mice were administered ˜150 μCi (˜20 μg) of ^125I-11-1F4 IV in the lateral tail vein. One group of p66 mice (n=3) and one group of p5+14 control mice (n=3) were euthanized at 24, 48 and 72 h post injection of 11-1F4 mAb and the organs harvested at necropsy for fixation, followed by microautoradiographic and immunohistochemical analyses.
For autoradiography, 6-μm-thick sections were cut from formalin-fixed, paraffin-embedded blocks, containing tissues from mice that had received […]. The sections were placed on Plus microscope slides (Fisher Scientific), dipped in NTB-2 emulsion (Eastman Kodak), stored in the dark, and developed after a 4 day exposure. Each section was counterstained with hematoxylin and eosin.
Formalin-fixed paraffin embedded tissue sections, from mice treated with p66 peptope or peptide p5+14 were subjected to antigen retrieval using citrate buffer (pH 6; Dako) 30 min at 90° C. The tissue was then blocked with hydrogen peroxide, casein, and avidin and biotin, per manufacturer's instructions. The biotinylated peptide-reactive mAb (clone 12-3 [described above]) was then added (1.6 μg/mL in PBS) an the samples incubated for 2 h at RT, O/N at 4° C., followed by another 2 h period at RT. […]
The presence of macrophages was detected by staining with mAb Iba-1 (1:8000 diln) followed by addition of biotinylated rabbit anti-mouse secondary reagent (Vector Rabbit Elite kit). […]

The target of assay [3] is T2, human transthyretin (TTR) amyloid-laden tissue (Homo sapiens, UniProt P02766).
T2 construct: from tissue
Nature of the assay: Pre-targeting immunohistochemistry on ATTR-laden tissue sections. The format is binding. As for the experimental part: The pre-targeting efficacy of peptide p5+14 in conjunction with mAb clones 4, 5, 12, or 13 was further evaluated using human ATTR-laden formalin-fixed paraffin embedded tissue sections. More particularly, six micrometer-thick sections, cut from formalin-fixed, paraffin embedded human transthyretin (TTR) amyloid-laden tissue, were subjected to antigen retrieval by incubation with CitraPlus (BioGenex, San Ramon, Calif.) for 30 min at 90° C. Peptide p5+14 was added to the tissue at ˜3 μg/mL (30× molar excess over mAb) and incubated overnight at 4° C. Unbound reagent was removed by washing in PBST for 30 min. Tissues (with or without p5+14) were immunostained with a 3 μg/mL solution of biotinylated anti-peptide mAb (clones 4, 5, 12, or 13). Slides were developed by addition of streptavidin-HRP (Vectastain Elite ABC kit, Vector Labs) followed by 3,3′-diaminobezidene (Vector Labs).
By way of positive control, a biotinylated-p5+14 peptide (without mAb) was used to directly stain TTR amyloid in this tissue (red arrows, below), as described above.
To confirm the presence and distribution of amyloid in the tissue a consecutive slide was stained with Congo red. Briefly, tissues were incubated in Congo red solution (0.8% w/v Congo red, 0.2% KOH w/v in 80% ethanol) for 1 h at RT. Sections were then washed in water and counterstained by suspending in Mayer's hematoxylin for 2 min. […]

Another assay has as its system mAb 7D8. Nature of the assay: Surface plasmon resonance of mAb 7D8 binding to amino-coupled peptopes. The settings on record: 7D8 2.7 nM; for Kd: read-out: KD. The procedure: Analyses were performed using a BIAcore X surface plasmon resonance instrument (GE Healthcare) and all reagents were obtained from GE Healthcare. For chip preparation, the peptides were attached to CM-5 chips using the amino-coupling method supplied with the instrument software. Briefly, chips were activated by injection (35 μL) of a mixture of ECD/NHS at a flow rate of 5 μL/min. Immediately thereafter, 35 μL of the test peptide (peptope p75, p76, p77, or p78), diluted to 1 μg/mL in NaOAc buffer, pH 5.5, was injected. After peptide coupling, the remaining active groups on the chip were blocked by injection of 35 μL of 1 M ethanolamine-HCl pH 8.5. Test peptides p75, p76, p77, or p78 were coupled to the Fc-1 channel and peptide p5, which served as a control, was coupled to the Fc-2 channel. A sensorgram was initiated on each chip in HBS-EP buffer at 10 μL per min. An initial regeneration step consisting of a 20 μL injection of pH 2.5 glycine buffer was performed and the baseline allowed to equilibrate. Antibody 7D8 was diluted to a stock of 10 μg/mL in HBS-EP buffer which was further diluted to a 0.4 μg/mL (˜2.7 nM) working dilution immediately before injection. The antibody was injected (50 μL) and the data collected for 200 seconds using a delayed wash cycle. The chip was subjected to a regeneration step before the next test injection. Binding data were extracted from the sensorgram, aligned, and analyzed using the BIAevaluation software by fitting to the following binding models (i) Langmuir, (ii) Langmuir with mass transfer, and (iii) Interaction of a bivalent analyte [A+B→AB; AB+B→AB2].

The values that follow come from patent US10046050B2, “Targeting immunotherapy for amyloidosis” (UNIVERSITY OF TENNESSEE RESEARCH FOUNDATION, priority 2014, dated 2018).

Like-named read-outs stand apart in the source and are kept apart here.

On to “GAQGAQAGQAGQAQGAQGAQAGQAGQ (GAQGAQAGQAGQAQGAQGAQAGQAGQ; Peptide p5G)”, for which the “capture of biotinylated peptide by adsorbed mAb clones” value in assay [1] is on record as “not captured”.

With “KAQKAQAKQAKQAQKAQKAQAKQAKQAQKAQKAQAKQAKQ (KAQKAQAKQAKQAQKAQKAQAKQAKQAQKAQKAQAKQAKQ; Peptide p5+14)”, the “binding of ^125I-peptide to amyloid samples” value in assay [2] (0.15 M NaCl) and in assay [2] (1.0 M NaCl) was “bound equally well” in each case. In addition, in the assay with AA amyloid, the “co-localization of ^125I-11-1F4 with AA amyloid after peptide pre-targeting” value is reported as “little evidence of ^125I-11-1F4 co-localized with the amyloid”. Besides, in assay [3] (compared with Congo red), the “staining of ATTR amyloid by directly biotinylated peptide (no mAb)” value is recorded as “co-localizes with amyloid deposits”. In addition, the “staining of ATTR amyloid, non-biotinylated peptide pre-targeting then biotinylated anti-peptide mAb” value in assay [3] (peptide ˜3 μg/mL, mAb clones 4, 5, 12, or 13 at 3 μg/mL) was “the amyloid was readily visualized”.

On to “KAQKAQAKQAKQAQKAQKAQAKQAKQGGGHEDT [p76, KAQKAQAKQAKQAQKAQKAQAKQAKQGGGHEDT]”, for which, in the assay on mAb 7D8 (Bivalent Analyte), the “Rmax (RU)” value is 861 RU, the “ka1” value was determined as 609000 M⁻¹ s⁻¹, the “ka2 (1/RUs)” value is 2.38E−03 1/RUs and the “kd1” value stood at 0.0736 s⁻¹. The “kd2” value at mAb 7D8 (Bivalent Analyte) was found to be 0.0774 s⁻¹. For the same substance, in the assay on mAb 7D8 (Langmuir with Mass Transfer), the “KA” value is 6.33e+08 M⁻¹, the “Req (RU)” value came out at 191 RU, the “Rmax (RU)” value is given as 302 RU and the “ka” value was determined as 8.96e+06 M⁻¹ s⁻¹. Further, at mAb 7D8 (Langmuir with Mass Transfer), the “kd” value worked out at 0.0137 s⁻¹, the “kobs” value stood at 0.0372 s⁻¹, the “kt (RU/(M*s))” value is recorded as 1.43E+09 RU/(M*s) and the Kd (usually the constant that tells how readily two partners part at equilibrium) came to 1.58 nM. Also, in the assay on mAb 7D8 (Langmuir), the “KA” value came to 4.43e+08 M⁻¹, the “Req (RU)” value is 191 RU, the “Rmax (RU)” value is recorded as 351 RU and the “ka” value is 2.95e+06 M⁻¹ s⁻¹. Further, on mAb 7D8 (Langmuir), the “kd” value was 0.00667 s⁻¹, the “kobs” value is 0.0146 s⁻¹ and the Kd was found to be 2.26 nM.

In the case of “KAQKAQAKQAKQAQKAQKAQAKQAKQGPGHEDT [p77, KAQKAQAKQAKQAQKAQKAQAKQAKQGPGHEDT]”, in the assay with mAb 7D8 (Bivalent Analyte), the “Rmax (RU)” value is listed as 5.43E+03 RU, the “ka1” value amounted to 44600 M⁻¹ s⁻¹, the “ka2 (1/RUs)” value is recorded as 3.76E−05 1/RUs and the “kd1” value was determined as 0.0295 s⁻¹. Further, at mAb 7D8 (Bivalent Analyte), the “kd2” value amounted to 0.0224 s⁻¹. Further, in the assay on mAb 7D8 (Langmuir with Mass Transfer), the “KA” value amounted to 3e+08 M⁻¹, the “Req (RU)” value is listed as 192 RU, the “Rmax (RU)” value is 429 RU and the “ka” value was determined as 1.96e+08 M⁻¹ s⁻¹. On mAb 7D8 (Langmuir with Mass Transfer), the “kd” value worked out at 0.653 s⁻¹, the “kobs” value is 1.18 s⁻¹, the “kt (RU/(M*s))” value is 4.57E+08 RU/(M*s) and the Kd was found to be 3.33 nM. Also, in the assay on mAb 7D8 (Langmuir), the “KA” value came to 1.04e+07 M⁻¹, the “Req (RU)” value came out at 223 RU, the “Rmax (RU)” value was 8.16E+03 RU and the “ka” value was determined as 51900 M⁻¹ s⁻¹. Besides, at mAb 7D8 (Langmuir), the “kd” value turned out to be 0.00498 s⁻¹, the “kobs” value came out at 0.00512 s⁻¹ and the Kd was determined as 96 nM.

With “KAQKAQAKQAKQAQKAQKAQAKQAKQVTVHEDT [p78, KAQKAQAKQAKQAQKAQKAQAKQAKQVTVHEDT]”, in the assay on mAb 7D8 (Bivalent Analyte), the “Rmax (RU)” value stood at 9.16E+03 RU, the “ka1” value amounted to 63700 M⁻¹ s⁻¹, the “ka2 (1/RUs)” value is 1.10E−07 1/RUs and the “kd1” value turned out to be 0.00972 s⁻¹. Further, the “kd2” value at mAb 7D8 (Bivalent Analyte) worked out at 2.63e-05 s⁻¹. In addition, in the assay on mAb 7D8 (Langmuir with Mass Transfer), the “KA” value was determined as 6.85e+08 M⁻¹, the “Req (RU)” value came to 326 RU, the “Rmax (RU)” value came out at 502 RU and the “ka” value was found to be 1.29e+07 M⁻¹ s⁻¹. Also, on mAb 7D8 (Langmuir with Mass Transfer), the “kd” value is 0.0188 s⁻¹, the “kobs” value came to 0.0536 s⁻¹, the “kt (RU/(M*s))” value is 1.65E+09 RU/(M*s) and the Kd worked out at 1.46 nM. Moreover, in the assay with mAb 7D8 (Langmuir), the “KA” value stood at 4.05e+08 M⁻¹, the “Req (RU)” value is on record as 331 RU, the “Rmax (RU)” value is listed as 633 RU and the “ka” value is 2.42e+06 M⁻¹ s⁻¹. In addition, at mAb 7D8 (Langmuir), the “kd” value is 0.00598 s⁻¹, the “kobs” value stood at 0.0125 s⁻¹ and the Kd was 2.47 nM.

For “RAQRAQARQARQAQRAQRAQARQARQ (RAQRAQARQARQAQRAQRAQARQARQ; Peptide p5R)”, the “capture of biotinylated peptide by adsorbed mAb clones” value in assay [1] is given as “not captured”.
